Biological target: EphA2 (Homo sapiens, UniProt P29317)
Assay: EphA2 activation in HEK 293-A2 cells (pEphA/B immunoblot)
Format: cell-based
Design: expressed in transfected cells; host or cells: HEK 293 (HEK 293-A2)
Procedure: Cells were plated in 24-well dishes at a density of 100,000 cells/well and grown for 24 hours prior to stimulation with appropriate compounds and ephrins for the given amounts of time. Compounds were prepared in DMSO at 500 times the final concentrations and 0.2% DMSO was used as vehicle control. Following treatment, cells were lysed directly in SDS Gel Loading Buffer and immunoblotted as described previously. Immunoprecipitation and immunofluorescence staining was performed as described. For immunoprecipitation, 300,000 cells/well were plated in 6-well dishes and lysed in modified RIPA Buffer (20 mM Tris-HCl pH 7.4, 20 mM NaF, 150 mM NaCl, 10% glycerol, 0.1% SDS, 0.5% DCA, 2 mM EDTA, 1% Triton X-100) following treatment. Either […] of ephrin-A1-Fc, or […] of EphA2 mouse monoclonal antibody (Clone D7, Millipore) were used, and mouse IgG was used as a negative control for EphA2 IP.
To determine whether the EphA2 agonist activity of doxazosin is cell-context specific, we evaluated the effects of doxazosin on additional cell types. We first utilized HEK 293 cells overexpressing EphA2 (HEK 293-A2) that we described previously. […] Next we tested PC-3 cells that express high levels of endogenous EphA2 receptor. […] We next evaluated the time-course of activation in both MDA-231-A2 and HEK 293-A2 cells upon treatment with a single 50 μM dose of doxazosin.

Chain of EphA2 (P29317 24-976): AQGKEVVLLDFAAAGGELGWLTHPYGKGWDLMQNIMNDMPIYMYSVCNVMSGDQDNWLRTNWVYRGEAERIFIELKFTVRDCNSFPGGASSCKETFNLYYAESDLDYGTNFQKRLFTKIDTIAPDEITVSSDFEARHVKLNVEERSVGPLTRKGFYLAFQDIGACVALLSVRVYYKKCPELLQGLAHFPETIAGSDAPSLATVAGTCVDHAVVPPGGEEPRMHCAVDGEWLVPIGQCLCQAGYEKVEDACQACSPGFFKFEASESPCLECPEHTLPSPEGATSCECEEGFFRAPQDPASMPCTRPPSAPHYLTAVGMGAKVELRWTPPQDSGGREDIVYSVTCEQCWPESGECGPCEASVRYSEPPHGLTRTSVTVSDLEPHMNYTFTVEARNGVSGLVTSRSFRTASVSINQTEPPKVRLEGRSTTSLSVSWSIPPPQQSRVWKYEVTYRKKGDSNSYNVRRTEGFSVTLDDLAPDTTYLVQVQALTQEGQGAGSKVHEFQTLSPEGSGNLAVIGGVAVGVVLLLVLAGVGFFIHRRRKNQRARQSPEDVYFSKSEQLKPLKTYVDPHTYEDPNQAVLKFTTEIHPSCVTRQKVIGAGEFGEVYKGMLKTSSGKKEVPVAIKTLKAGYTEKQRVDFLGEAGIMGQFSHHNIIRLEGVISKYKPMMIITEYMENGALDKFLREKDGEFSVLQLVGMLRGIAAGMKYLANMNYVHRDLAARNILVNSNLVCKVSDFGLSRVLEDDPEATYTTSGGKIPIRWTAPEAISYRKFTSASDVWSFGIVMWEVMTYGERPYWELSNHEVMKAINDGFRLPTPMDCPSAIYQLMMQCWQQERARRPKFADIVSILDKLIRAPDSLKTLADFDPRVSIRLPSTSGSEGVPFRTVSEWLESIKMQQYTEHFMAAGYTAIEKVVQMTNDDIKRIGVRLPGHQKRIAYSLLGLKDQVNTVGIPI

COc1cc2nc(N3CCN(C(=O)C4COc5ccccc5O4)CC3)nc(N)c2cc1OC (stereo not drawn) [doxazosin]
concentration at which significant EphA2 activation starts (HEK 293-A2 cells, 30 minutes): 25 µM
time at which EphA2 activation became evident (HEK 293-A2 cells, single 50 μM dose): 10 min
EphA2 kinase activation, Eph receptor panel (HEK 293 cells overexpressing EphA2, 60 minutes): activated both EphA2 and EphA4 kinases

From patent US11814372B2, “Agonists of EPHA and their uses” (CASE WESTERN RESERVE UNIVERSITY, priority 2017, dated 2023)
